Data as given in ChEMBL document CHEMBL1122177, “Mechanism of action of 5-nitro-2'-deoxyuridine” (J Med Chem, 1982).

Legend:
Assay type in all cases: functional, cell-based
Conditions in all cases: Mus musculus
L1210 [1] = assay: Effective concentration for growth inhibition of L1210 cells in culture in the presence of 10 uM of dThd
L1210 [2] = assay: Effective concentration for growth inhibition of L1210 cells in culture in the presence of 10 uM of dUrd
S49 [3] = assay: Effective concentration for growth inhibition of S49 cells in culture in the presence of 10 uM of dUrd
L1210 [4] = assay: Effective concentration to inhibit growth of L1210 cells in culture
S49 [5] = assay: Effective concentration to inhibit growth of S49 cells in culture

SMILES: O=c1[nH]c(=O)n([C@H]2C[C@H](O)[C@@H](CO)O2)cc1[N+](=O)[O-]
- EC50 (L1210 [1]): > 3000 nM
- EC50 (L1210 [2]): 120 nM
- EC50 (S49 [3]): 60 nM
- EC50 (L1210 [4]): 33 nM
- EC50 (S49 [5]): 30 nM
